Measurements from US20050065189A1, “Thiazole derivatives as cannabinoid receptor modulators” (SOLVAY PHARMACEUTICALS B.V., priority 2003, published 2005).
Like-named read-outs stand apart in the source and are kept apart here.

Tests used:
[1] = target: T1, human cannabinoid CB1 receptor (Homo sapiens, UniProt P21554); assay: In vitro affinity for human cannabinoid CB1 receptors ([3H]CP-55,940 radioligand binding, CHO cell membranes)
T1 construct: expressed in transfected cells; host or cells: Chinese hamster ovary (CHO) cells, membrane preparation
Protocol: In vitro Affinity for Human Cannabinoid CB1 Receptors
(§1) The affinity of the compounds of the invention for cannabinoid CB1 receptors can be determined using membrane preparations of Chinese hamster ovary (CHO) cells in which the human cannabinoid CB1 receptor is stably transfected in conjunction with [^3H]CP-55,940 as radioligand. After incubation of a freshly prepared cell membrane preparation with the [^3H]-ligand, with or without addition of compounds of the invention, separation of bound and free ligand is performed by filtration over glassfiber filters. Radioactivity on the filter is measured by liquid scintillation counting.

[2] = target: T2, human cannabinoid CB2 receptor (Homo sapiens, UniProt P34972); assay: In vitro affinity for human cannabinoid CB2 receptors ([3H]CP-55,940 radioligand binding, CHO cell membranes)
T2 construct: expressed in transfected cells; host or cells: Chinese hamster ovary (CHO) cells, membrane preparation
Protocol: In Vitro Affinity for Human Cannabinoid CB2 Receptors
as §1, with “CB2” for “CB1”

[3] = membranes of CHO cells stably transfected with human CB1, [3H]CP-55,940 radioligand, read-out: Receptor affinity Human CB1 pKi-value (converted)

T1 sequence (P21554 whole entry): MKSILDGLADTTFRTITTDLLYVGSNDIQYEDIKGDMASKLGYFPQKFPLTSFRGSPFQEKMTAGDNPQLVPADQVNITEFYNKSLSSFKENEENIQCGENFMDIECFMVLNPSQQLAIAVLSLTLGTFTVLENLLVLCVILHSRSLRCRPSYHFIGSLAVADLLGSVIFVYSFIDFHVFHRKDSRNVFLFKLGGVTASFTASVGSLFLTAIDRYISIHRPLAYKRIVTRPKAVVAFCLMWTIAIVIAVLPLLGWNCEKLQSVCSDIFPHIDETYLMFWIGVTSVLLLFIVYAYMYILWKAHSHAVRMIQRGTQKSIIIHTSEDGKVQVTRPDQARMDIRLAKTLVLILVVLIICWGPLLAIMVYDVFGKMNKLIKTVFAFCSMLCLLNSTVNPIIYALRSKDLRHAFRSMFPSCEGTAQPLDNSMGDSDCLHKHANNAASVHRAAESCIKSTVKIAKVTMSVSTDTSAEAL
T2 sequence (P34972 whole entry): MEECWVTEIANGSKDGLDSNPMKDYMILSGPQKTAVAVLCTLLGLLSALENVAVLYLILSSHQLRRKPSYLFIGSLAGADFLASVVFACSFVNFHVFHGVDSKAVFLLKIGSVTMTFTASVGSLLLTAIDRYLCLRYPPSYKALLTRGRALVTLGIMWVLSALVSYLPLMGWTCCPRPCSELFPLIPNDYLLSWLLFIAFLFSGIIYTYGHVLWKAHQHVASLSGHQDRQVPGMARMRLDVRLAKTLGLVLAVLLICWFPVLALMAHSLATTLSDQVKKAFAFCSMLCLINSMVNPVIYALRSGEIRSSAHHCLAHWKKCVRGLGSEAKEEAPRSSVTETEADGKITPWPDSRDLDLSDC

| SMILES | Ki [1, 3] [nM] | Ki ([2]; membranes of CHO cells stably transfected with human CB2, [3H]CP-55,940 radioligand, read-out: Receptor affinity Human CB2 pKi-value (converted)) [nM] | Ki [1] [nM] | Ki [2] [nM] |
| --- | --- | --- | --- | --- |
| CCCCC(=O)c1nc(-c2ccc(Cl)cc2Cl)c(-c2ccccc2)s1 [Example 1, 1-[4-(2,4-dichlorophenyl)-5-phenylthiazol-2-yl]pentan-1-one] | 251 | – | – | – |
| CCCCCCC(=O)c1nc(-c2ccccc2Cl)c(-c2ccccc2)s1 [Example 4] | 158 | – | – | – |
| CCCCCc1nc(C(=O)NC23CC4CC(CC(C4)C2)C3)sc1-c1ccccc1 [Example 9, N-(adamant-1-yl)-4-(n-pentyl)-5-phenylthiazole-2-carboxamide] | 15.8 | 7.94 | – | – |
| CCCCCc1nc(C(=O)NC2CCCCC2)sc1-c1ccccc1 [Example 11] | – | – | 251 | 20 |
